# Experimental data from patent USRE40086E1, “Method for treating bacterial infection with novel 7-substituted-9-substituted amino 6-demethyl-6-deoxytetracyclines” (Wyeth Holdings Corporation, priority 1991, dated 2008).
# Counter-ions that a name gives are not always drawn. Like-named read-outs stand apart in the source and are kept apart here.
# Legend:
# [1] = tested on: S. aureus UBMS 88-5 (tetM); test: MIC, agar dilution; format: cell-based; details: S. aureus UBMS 88-5 (tetM)
# [2] = tested on: S. aureus UBMS 88-4 (Sensitive); test: MIC, agar dilution; format: cell-based; details: Staphylococcus aureus, S. aureus UBMS 88-4 (Sensitive); read-out: MIC
# [3] = tested on: S. aureus UBMS 90-1 (tetM); test: MIC, agar dilution; format: cell-based; details: S. aureus UBMS 90-1 (tetM)
# [4] = tested on: S. aureus UBMS 88-7 (tetK); test: MIC, agar dilution; format: cell-based; details: Staphylococcus aureus
# [5] = tested on: S. aureus ATCC 29213 (Sensitive); test: MIC, agar dilution; format: cell-based; details: Staphylococcus aureus, ATCC29213; S. aureus ATCC 29213 (Sensitive); read-out: MIC
# [6] = tested on: S. aureus Smith (Sensitive); test: MIC, agar dilution; format: cell-based; details: Staphylococcus aureus; S. aureus Smith (Sensitive); read-out: MIC
# [7] = tested on: S. haemolyticus AVAH 88-3; test: MIC, agar dilution; format: cell-based
# [8] = tested on: E. faecalis 12201; test: MIC, agar dilution; format: cell-based
# [9] = tested on: E. coli UBMS 89-1 (tetM); test: MIC, agar dilution; format: cell-based; details: Escherichia coli
# [10] = tested on: E. coli UBMS 89-2 (Sensitive); test: MIC, agar dilution; format: cell-based; details: Escherichia coli; E. coli UBMS 89-2 (Sensitive); read-out: MIC
# [11] = tested on: E. coli ATCC 25922; test: MIC, agar dilution; format: cell-based
# [12] = tested on: Staphylococcus aureus, methicillin-resistant; test: MIC vs recent clinical and agricultural isolates (Table V, KK); format: cell-based; details: [15] tested
# [13] = tested on: Staphylococcus aureus, methicillin-susceptible; test: as above; format: cell-based; details: [15] tested
# [14] = tested on: Staphylococcus Coagulase-negative, methicillin-susceptible; test: as above; format: cell-based; details: [16] tested
# [15] = tested on: Enterococcus faecalis; test: as above; format: cell-based; details: [10] tested
# [16] = tested on: Enterococcus faecium; test: as above; format: cell-based; details: [10] tested
# [17] = tested on: Streptococcus pyogenes; test: as above; format: cell-based; details: [10] tested
# [18] = tested on: Streptococcus agalactiae; test: as above; format: cell-based; details: [10] tested
# [19] = tested on: Streptococcus pneumoniae; test: as above; format: cell-based; details: [10] tested
# [20] = tested on: Listeria monocytogenes; test: as above; format: cell-based; details: [8] tested
# [21] = tested on: Escherichia coli (Clinical); test: as above; format: cell-based; details: [30] tested
# [22] = tested on: Escherichia coli (Agricultural); test: as above; format: cell-based; details: [15] tested
# [23] = tested on: Shigella spp.; format: cell-based; details: [14] tested
# [24] = tested on: Kiebsiella pneumoniae; test: MIC vs recent clinical and agricultural isolates (Table V, KK); format: cell-based; details: [10] tested
# [25] = tested on: Klebsiella oxytoca; test: as above; format: cell-based; details: [10] tested
# [26] = tested on: Citrobacter freundii; test: as above; format: cell-based; details: [10] tested
# [27] = tested on: Citrobacter diversus; test: as above; format: cell-based; details: [10] tested
# [28] = tested on: Serratia mercescens; test: as above; format: cell-based; details: [10] tested
# [29] = tested on: Enterobacter cloacae; test: as above; format: cell-based; details: [10] tested
# [30] = tested on: Enterobacter aerogenes; test: as above; format: cell-based; details: [10] tested
# [31] = tested on: Proteus mirabilis; test: as above; format: cell-based; details: [26] tested
# [32] = tested on: Proteus vulgaris; test: as above; format: cell-based; details: [18] tested
# [33] = tested on: Morganella morganii; test: as above; format: cell-based; details: [16] tested
# [34] = tested on: Pseudomonas aeruginosa; test: as above; format: cell-based; details: [10] tested
# [35] = tested on: Xanthomonas maltophilia; test: as above; format: cell-based; details: [10] tested
# [36] = tested on: Moraxella catarrhalis; test: as above; format: cell-based; details: [18] tested
# [37] = tested on: Neisseria gonorrhoeae; test: as above; format: cell-based; details: [14] tested
# [38] = tested on: Haemophilus influenzae; test: as above; format: cell-based; details: [15] tested
# [39] = tested on: Pasturella multocida (Agricultural & Clinical); test: as above; format: cell-based; details: [17] tested
# [40] = tested on: Bordetella bronchiseptica (Agricultural); test: as above; format: cell-based; details: [10] tested
# [41] = tested on: Bacteroides fragilis; test: as above; format: cell-based; details: [11] tested
# [42] = tested on: Bacertoides fragilis group; test: as above; format: cell-based; details: [10] tested
# [43] = tested on: Bacteroides spp.; test: as above; format: cell-based; details: [9] tested
# [44] = tested on: Clostridium difficile; test: as above; format: cell-based; details: [12] tested
# [45] = tested on: Clostridium perfringens; format: cell-based; details: [16] tested
# [46] = tested on: Anaerobic Gram (+) Cocci; test: MIC vs recent clinical and agricultural isolates (Table V, KK); format: cell-based; details: [15] tested
# [47] = tested on: S. aureus SMITH (sens); test: In vivo antibacterial evaluation, acute lethal infection in mice; details: Staphylococcus aureus, read-out: ED50
# Source text: In Vivo Antibacterial Evaluation (Table VII)
smiles,measurement,setting,value
"CN(C)c1ccc(O)c2c1C[C@H]1C[C@H]3[C@H](N(C)C)C(O)=C(C(N)=O)C(=O)[C@@]3(O)C(O)=C1C2=O [Compound O, 7-(Dimethylamino)-6-demethyl-6-deoxytetracycline hydrochloride (minocycline hydrochloride), reference compound]",MIC,[1]; hydrochloride,4 µg/mL
same,MIC,[1]; Staphylococcus aureus,2 µg/mL
same,MIC,[2],≤ 0.015 µg/mL
same,MIC,[3]; hydrochloride,2 µg/mL
same,MIC,[3]; Staphylococcus aureus,4 µg/mL
same,MIC,[4],0.06 µg/mL
same,MIC,[5],≤ 0.015 µg/mL
same,MIC,[6],≤ 0.015 µg/mL
same,MIC,"[7]; S. haemolyticus AVAH 88-3, hydrochloride",0.06 µg/mL
same,MIC,"[7]; Staphylococcus haemolyticus, AVAH883, S. haemolyticus AVAH 88-3, read-out: MIC",0.03 µg/mL
same,MIC,"[8]; E. faecalis 12201, hydrochloride",8 µg/mL
same,MIC,"[8]; Enterococcus faecalis, 12201, E. faecalis 12201, read-out: MIC",4 µg/mL
same,MIC,[9],16 µg/mL
same,MIC,[10],0.5 µg/mL
same,MIC,"[11]; E. coli ATCC 25922, hydrochloride",0.5 µg/mL
same,MIC,"[11]; Escherichia coli, ATCC25922, E. coli ATCC 25922, read-out: MIC",0.25 µg/mL
same,MIC (range over isolates),[12],0.06 to 4 µg/mL
same,MIC (range over isolates),[13],0.03 to 0.12 µg/mL
same,MIC (range over isolates),[14],0.03 to 1 µg/mL
same,MIC (range over isolates),[15],0.03 to 16 µg/mL
same,MIC (range over isolates),[16],0.03 to 16 µg/mL
same,MIC (range over isolates),[17],0.03 to 2 µg/mL
same,MIC (range over isolates),[18],0.12 to 16 µg/mL
same,MIC (range over isolates),[19],0.06 to 0.5 µg/mL
same,MIC (range over isolates),[20],0.015 to 0.03 µg/mL
same,MIC (range over isolates),[21],0.25 to 32 µg/mL
same,MIC (range over isolates),[22],1 to 16 µg/mL
same,MIC (range over isolates),[23],0.25 to 8 µg/mL
same,MIC (range over isolates),[24],0.5 to 8 µg/mL
same,MIC (range over isolates),[25],0.5 to 4 µg/mL
same,MIC (range over isolates),[26],0.03 to 32 µg/mL
same,MIC (range over isolates),[27],0.25 to 4 µg/mL
same,MIC (range over isolates),[28],1 to 8 µg/mL
same,MIC (range over isolates),[29],0.25 to 4 µg/mL
same,MIC (range over isolates),[30],0.5 to 1 µg/mL
same,MIC (range over isolates),[31],1 to 32 µg/mL
same,MIC (range over isolates),[32],0.5 to 16 µg/mL
same,MIC (range over isolates),[33],0.25 to 32 µg/mL
same,MIC (range over isolates),[34],1 to 16 µg/mL
same,MIC (range over isolates),[35],0.12 to 1 µg/mL
same,MIC (range over isolates),[36],0.03 to 0.12 µg/mL
same,MIC (range over isolates),[37],0.5 to 64 µg/mL
same,MIC (range over isolates),[38],0.5 to 2 µg/mL
same,MIC (range over isolates),[39],0.015 to 4 µg/mL
same,MIC (range over isolates),[40],0.06 to 0.12 µg/mL
same,MIC (range over isolates),[41],<0.008 to 16 µg/mL
same,MIC (range over isolates),[42],<0.008 to 4 µg/mL
same,MIC (range over isolates),[43],0.03 to 16 µg/mL
same,MIC (range over isolates),[44],0.015 to 16 µg/mL
same,MIC (range over isolates),[45],>0.008 to 16 µg/mL
same,MIC (range over isolates),[46],0.05 to 8 µg/mL
same,ED50,[47]; Oral,0.74 mg/kg
same,ED50,"[47]; iv, Intraveneous",0.37 mg/kg
